Experimental data taken from patent US7199259B2, “Resolution of α-(phenoxy)phenylacetic acid derivatives” (Metabolex, Inc., priority 2003, dated 2007).
One block for each molecule: values may come before it.

Legend:
[1] = Solubility in methylene chloride; assay type: physicochemical
[2] = target: cytochrome P450 2C9 (Homo sapiens, UniProt P11712); details: cited from earlier work
[3] = Solubility of CPTA CAF D-Base salts in 2-propanol containing 11% free CPTA; assay type: physicochemical; details: 2-propanol with 11% free CPTA, FIG. 3
Protocol: “Solvent” was prepared by dissolving 2.40 g of racemic CPTA in 19.42 g of 2-propanol (Fisher HPLC Grade) or 4.90 g of racemic CPTA in 31.4 g of ethanol. The respective concentrations of CPTA in solution were 11.0% and 13.5%. Solubility of the (−)-CPTA·CAF D-Base Salt (i.e., (−)-Salt) or (+)-CPTA.CAF D-Base Salt (i.e., (+)-Salt) was determined by a gravimetric method. At a given temperature, a portion of the supernatant liquid from a saturated solution was remove to a vial of known weight. The solution weight was determined, and the volatile solvent was evaporated with a purge of nitrogen. The solid was further dried to constant weight in a vacuum oven at about 50° C./1 mm Hg. The vial was re-weighed to determine the loss of volatile solvent and weight of solid remaining. From this, the amount of dissolved CPTA from the “solvent” could be calculated. Subtracting the weight of total solid from the CPTA gave the weight of soluble salt in the solvent.

[4] = Solubility of diastereomeric CPTA-CAF D base salts in 2-propanol; assay type: physicochemical; details: for Wt % in solution: slurry held overnight
Protocol: Samples of (−)-CPTA CAF D Base and (+)-CPTA CAF D Base (>98% ee) were added to 2-propanol in the amounts shown in Table 8, and mixed using an ultrasonic bath. All samples remained slurries. The slurries were held overnight at the temperature listed, then samples of the supernates were removed and analyzed by quantitative HPLC analysis to determine the CPTA concentration. Additionally, 8.00 g of (−)-CPTA CAF D Base salt required 54.2 g of 2-propanol for solution at 82° C. (14.7 wt %).

[5] = Solubility of racemic CPTA sodium salt in water; assay type: physicochemical; details: sodium hydroxide added to pH about 12.6 versus pH about 9.5
Protocol: A 100-mL water jacketed resin pot with a magnetic stirrer was connected to a recirculating water bath and charged with 3.48 g of the racemic CPTA sodium salt and 20.0 g of water. The bath temperature was warmed to 35° C., and the slurry was stirred for one hour. The agitator was shut off, and the solid was allowed to settle for 30 min. The pH was 9.4. A 0.3036 g-sample of the supernate was removed and diluted to 25.00 mL with acetonitrile, and the solution was assayed by HPLC analysis. Analysis was repeated at 47° C. and at 19° C. An additional 3.01 g of CPTA sodium salt was added to maintain a slurry at the higher temperature, and 25 g of water was added to give a thinner slurry at the lower temperature. The pH was increased to 12.7 at ambient temperature by the addition of 50% aqueous sodium hydroxide, and the analysis was continued at 13.5, 25, 34, and 42° C.

Chain of cytochrome P450 2C9 (P11712 whole entry): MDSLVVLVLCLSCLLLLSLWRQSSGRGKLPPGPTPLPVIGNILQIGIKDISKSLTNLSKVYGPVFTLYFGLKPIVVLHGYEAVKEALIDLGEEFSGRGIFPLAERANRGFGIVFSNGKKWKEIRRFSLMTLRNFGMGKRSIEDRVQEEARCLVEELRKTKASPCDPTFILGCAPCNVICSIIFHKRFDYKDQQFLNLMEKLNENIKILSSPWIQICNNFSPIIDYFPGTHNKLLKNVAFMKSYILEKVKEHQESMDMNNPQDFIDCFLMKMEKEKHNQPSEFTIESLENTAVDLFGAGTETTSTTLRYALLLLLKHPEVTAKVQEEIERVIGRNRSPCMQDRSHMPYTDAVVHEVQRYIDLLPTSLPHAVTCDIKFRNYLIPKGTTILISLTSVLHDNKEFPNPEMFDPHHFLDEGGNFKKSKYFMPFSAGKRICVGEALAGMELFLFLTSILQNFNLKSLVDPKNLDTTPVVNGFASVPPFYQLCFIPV

SMILES: NC(CO)C(O)c1ccc([N+](=O)[O-])cc1.O=C(O)C(Oc1cccc(C(F)(F)F)c1)c1ccc(Cl)cc1 (single isomer, unassigned; (+)) [(+)-CPTA CAF D Base Salt]
solubility in 2-propanol containing 11% free CPTA versus pure 2-propanol [3]: greater solubility | Wt % in solution ([4]; 8.5 °C): 1.32 Wt % | Wt % in solution ([4]; 20.0 °C): 1.85 Wt % | Wt % in solution ([4]; 45.8 °C): 6.03 Wt %

SMILES: NC(CO)C(O)c1ccc([N+](=O)[O-])cc1.O=C(O)C(Oc1cccc(C(F)(F)F)c1)c1ccc(Cl)cc1 (single isomer, unassigned; (-)) [(−)-CPTA CAF D Base Salt]
solubility in 2-propanol containing 11% free CPTA versus pure 2-propanol [3]: greater solubility | Wt % in solution ([4]; 7.8 °C): 0.376 Wt % | Wt % in solution ([4]; 19.4 °C): 0.688 Wt % | Wt % in solution ([4]; 45.3 °C): 2.35 Wt % | solubility in 2-propanol (amount required for solution) ([4]; 82 °C, 8.00 g salt in 54.2 g 2-propanol): 14.7 wt % | solubility in 2-propanol relative to the (+)-CPTA form ([4]; FIG. 1 profiles): approximately three times less soluble

SMILES: O=C(O)C(Oc1cccc(C(F)(F)F)c1)c1ccc(Cl)cc1 (single isomer, unassigned; (-)) [(−)-enantiomer of halofenic acid]
ability to inhibit cytochrome P450 2C9 compared to the (+)-enantiomer ([2]; relative to (+)-enantiomer of halofenic acid): about twenty-fold less active

Further lines, with some results ahead:

solubility in methylene chloride [1]: less than 3.4%
SMILES: O=C(O)C(Oc1cccc(C(F)(F)F)c1)c1ccc(Cl)cc1 (racemic) [halofenic acid, (4-chlorophenyl)(3-trifluoromethylphenoxy)acetic acid]
inhibition of cytochrome P450 2C9 ([2]; racemic acid): inhibits

aqueous solubility, effect of raising pH [5]: decreased the aqueous solubility
SMILES: O=C([O-])C(Oc1cccc(C(F)(F)F)c1)c1ccc(Cl)cc1.[Na+] (racemic) [sodium salt of racemic CPTA]
